Measured values: US20180116978A1, “FORMULATIONS OF TOCOTRIENOL QUINONES FOR THE TREATMENT OF OPHTHALMIC DISEASES” (priority 2009, published 2018)
Where two headings read alike, the source gives them in different places.

Experiments:
[1] = rat, in vivo
[2] = rat, in vivo; remark: listed apart in the source
Text: The starting dose can be estimated based on the United States Food and Drug Administration guidelines titled “Estimating the Maximum Safe Starting Dose in Initial Clinical Trials for Therapeutics in Adult Healthy Volunteers” (July 2005) as well as the International Conference on Harmonisation of Technical Requirements for Registration of Pharmaceuticals for Human Use (ICH) guidelines titled “Guidance on Non-clinical Safety Studies for the Conduct of Human Clinical Trials and Marketing Authorization for Pharmaceuticals” (July 2008). Per ICH guidelines, predicted exposures from the starting dose should not exceed 1/50th the NOAEL (No-Adverse-Observed-Effect-Level) in the more sensitive species on a mg/m^2 basis. Following a single oral dose of alpha-tocotrienol quinone, the NOAEL was established to be 500 mg/kg for the female rat, i.e. 3,000 mg/m^2. This dosage would be equivalent to 81 mg/kg in an adult human. 1/50th of 81 mg/kg is 1.6 mg/kg, i.e. 110 mg for a 70 kg adult, or 16 mg for a 10 kg child. This dose can be administered once, twice, or three times daily.

[3] = Animal study of alpha-tocotrienol quinone administration, pharmacokinetics in fasted dogs; assay type: in vivo; conditions: 10 mg/kg
[4] = rat, cited from earlier work

Molecule: CC(C)=CCC/C(C)=C/CC/C(C)=C/CCC(C)(O)CCC1=C(C)C(=O)C(C)=C(C)C1=O (stereo not drawn) [Alpha-tocotrienol quinone, Alpha-Tocotrienol quinone]
- increase in AUCs [1]: 1.5:2.8:4.0:6.7
- Cmax ([1]; 10 mg/kg): 931 ng/mL
- Tmax ([1]; 10 mg/kg): 3.5 h
- bioavailability ([1]; 10 mg/kg): ~90%
- t1/2 ([1]; 10 mg/kg): 3.5 h
- NOAEL equivalent dosage in an adult human [2]: 81 mg/kg
- safe when given acutely up to [2]: up to 2000 mg/kg
- Cmax [3]: 442 ng/mL
- Tmax [3]: 2.8 h
- bioavailability [3]: ~16%
- t1/2 [3]: 7.6 h

Molecule: Cc1c(C)c2c(c(C)c1O)CC[C@@](C)(CCC[C@H](C)CCC[C@H](C)CCCC(C)C)O2 [alpha-tocopherol]
- concentration in ocular tissues ([4]; in vivo): no significant increase

Molecule: alpha-tocotrienol
- concentration in ocular tissues ([4]; topical ophthalmic administration): increased markedly in every tissue
